Each structure is given as a SMILES string.

In test [1] the target is T1, KRas^WT (Homo sapiens, UniProt P01116).
T1 construct: Biotinylated KRas (corresponding to amino acids 1-169, produced at Accelegan Inc.); biotin (biotinylated); purchased Accelegan Inc
The test is described as follows: KRas binding assay (TR-FRET tracer displacement), KRas WT. Particulars: for inhibition at 0.01 µM: single point, 10 nM compound, TR-FRET; for IC50: TR-FRET tracer displacement, KRas WT. (In general: Time-resolved FRET reads energy transfer from a long-lived donor to a nearby acceptor.)

Test [2] has as its target T2, KRas^G12A (Homo sapiens, UniProt P01116, G12A).
T2 construct: Biotinylated KRas (corresponding to amino acids 1-169, produced at Accelegan Inc.); biotin (biotinylated); purchased Accelegan Inc
In words: KRas binding assay (TR-FRET tracer displacement), KRas G12A. As to conditions: for inhibition at 0.01 µM: single point, 10 nM compound, TR-FRET; for IC50: TR-FRET tracer displacement, KRas G12A.

The target in test [3] is T3, KRas^G12C (Homo sapiens, UniProt P01116, G12C).
T3 construct: Biotinylated KRas (corresponding to amino acids 1-169, produced at Accelegan Inc.); biotin (biotinylated); purchased Accelegan Inc
The test is described as follows: KRas binding assay (TR-FRET tracer displacement), KRas G12C. Particulars: for inhibition at 0.01 µM: single point, 10 nM compound, TR-FRET; for IC50: TR-FRET tracer displacement, KRas G12C.

Test [4] addresses T4, KRas^G12D (Homo sapiens, UniProt P01116, G12D).
T4 construct: Biotinylated KRas (corresponding to amino acids 1-169, produced at Accelegan Inc.); biotin (biotinylated); purchased Accelegan Inc
The test is described as follows: KRas binding assay (TR-FRET tracer displacement), KRas G12D.

Test [5] addresses T5, KRas^G12R (Homo sapiens, UniProt P01116, G12R).
T5 construct: Biotinylated KRas (corresponding to amino acids 1-169, produced at Accelegan Inc.); biotin (biotinylated); purchased Accelegan Inc
The test is described as follows: KRas binding assay (TR-FRET tracer displacement), KRas G12R.

Test [6] deals with T6, KRas^G12S (Homo sapiens, UniProt P01116, G12S).
T6 construct: Biotinylated KRas (corresponding to amino acids 1-169, produced at Accelegan Inc.); biotin (biotinylated); purchased Accelegan Inc
The test is described as follows: KRas binding assay (TR-FRET tracer displacement), KRas G12S. As to conditions: for inhibition at 0.01 µM: single point, 10 nM compound, TR-FRET; for IC50: TR-FRET tracer displacement, KRas G12S.

The target in test [7] is T7, KRas^G12V (Homo sapiens, UniProt P01116, G12V).
T7 construct: Biotinylated KRas (corresponding to amino acids 1-169, produced at Accelegan Inc.); biotin (biotinylated); purchased Accelegan Inc
The test is described as follows: KRas binding assay (TR-FRET tracer displacement), KRas G12V.

The target of test [8] is T8, KRas^G13D (Homo sapiens, UniProt P01116, G13D).
T8 construct: Biotinylated KRas (corresponding to amino acids 1-169, produced at Accelegan Inc.); biotin (biotinylated); purchased Accelegan Inc
In words: KRas binding assay (TR-FRET tracer displacement), KRas G13D. Particulars: for inhibition at 0.01 µM: single point, 10 nM compound, TR-FRET; for IC50: TR-FRET tracer displacement, KRas G13D.

Test [9] has as its target T9, KRas^Q61H (Homo sapiens, UniProt P01116, Q61H).
T9 construct: Biotinylated KRas (corresponding to amino acids 1-169, produced at Accelegan Inc.); biotin (biotinylated); purchased Accelegan Inc
The test is described as follows: KRas binding assay (TR-FRET tracer displacement), KRas Q61H. As to conditions: for inhibition at 0.01 µM: single point, 10 nM compound, TR-FRET; for IC50: TR-FRET tracer displacement, KRas Q61H.

Test [10] concerns KRas-mediated phosphorylation of ERK in MKN1 cells. The test is described as follows: Inhibition of KRas-mediated phosphorylation of ERK (Cisbio HTRF pERK), MKN1 cells. The class given is cell-based. As to conditions: Homo sapiens, MKN-1. Put shortly:
(§1)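 HTRF pERK read-out; 6,000 cells/well, RPMI_10% FBS, overnight 37° C./5% CO2; 4 h covered incubation at RT before reading.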

In test [11] the test system is KRas-mediated phosphorylation of ERK in PSN1 cells. In words: Inhibition of KRas-mediated phosphorylation of ERK (Cisbio HTRF pERK), PSN1 cells. The class given is cell-based. Particulars: Homo sapiens. Put shortly:
as §1

Test [12] has as its system KRas-mediated phosphorylation of ERK in AsPC-1 cells. In words: Inhibition of KRas-mediated phosphorylation of ERK (Cisbio HTRF pERK), AsPC-1 cells. As to conditions: Homo sapiens, ASPC1, AsPC-1 cells; HTRF pERK. The class given is cell-based. Put shortly:
(§2)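 Signal read by HTRF (d2/Cryptate antibody pair, 2 hr room-temperature incubation on lysate). Cells: 6,000 per well, 3 hr compound exposure. Titration: 10 uM highest, 3-fold, 10 points.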

The subject of test [13] is KRas-mediated phosphorylation of ERK in H727 cells. In words: Inhibition of KRas-mediated phosphorylation of ERK (Cisbio HTRF pERK), H727 cells. In kind it is cell-based. As to conditions: Homo sapiens, NCI-H727, H727 cells; HTRF pERK. The method, boiled down: as §2
Test [14] concerns KRas-mediated phosphorylation of ERK in A549 cells. In words: Inhibition of KRas-mediated phosphorylation of ERK (Cisbio HTRF pERK), A549 cells. In kind it is cell-based. Particulars: Homo sapiens, HTRF pERK. The method, boiled down: (§3)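 6,000 cells/well; cpd 10 uM top, 3-fold x10, 0.8% DMSO final; 3 hr incubation; Min ctrl Trametinib 0.2 uM; lysis 40 min 4° C shaking; d2 + Cryptate Ab mix, 2 hr RT; HTRF read.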

Test [15] relates to KRas-mediated phosphorylation of ERK in H460 cells. The test is described as follows: Inhibition of KRas-mediated phosphorylation of ERK (Cisbio HTRF pERK), H460 cells. As to conditions: Homo sapiens; for IC50: NCI-H460, HTRF pERK. In kind it is cell-based. The method, boiled down: as §2
For test [16], the system named is KRas-mediated phosphorylation of ERK in HCT116 cells. In words: Inhibition of KRas-mediated phosphorylation of ERK (Cisbio HTRF pERK), HCT116 cells. In kind it is cell-based. Particulars: Homo sapiens; for IC50: HCT-116, HTRF pERK. The method, boiled down:
as §3

T4 sequence (P01116 1-169 isoform P01116-2 G12D): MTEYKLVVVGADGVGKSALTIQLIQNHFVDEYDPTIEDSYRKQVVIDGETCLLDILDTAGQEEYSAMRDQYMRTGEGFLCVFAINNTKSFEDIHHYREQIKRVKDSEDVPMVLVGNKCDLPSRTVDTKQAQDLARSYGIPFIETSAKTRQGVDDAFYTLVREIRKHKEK
T3 sequence (P01116 1-169 isoform P01116-2 G12C): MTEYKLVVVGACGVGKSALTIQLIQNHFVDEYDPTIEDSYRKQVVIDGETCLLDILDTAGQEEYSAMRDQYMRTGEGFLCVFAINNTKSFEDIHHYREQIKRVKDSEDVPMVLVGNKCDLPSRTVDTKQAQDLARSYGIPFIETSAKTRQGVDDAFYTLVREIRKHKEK
T9 sequence (P01116 1-169 isoform P01116-2 Q61H): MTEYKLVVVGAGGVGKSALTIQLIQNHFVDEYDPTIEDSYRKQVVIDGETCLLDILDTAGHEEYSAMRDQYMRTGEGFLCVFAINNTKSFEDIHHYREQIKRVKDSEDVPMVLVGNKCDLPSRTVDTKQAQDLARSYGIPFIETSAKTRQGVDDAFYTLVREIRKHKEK
T8 sequence (P01116 1-169 isoform P01116-2 G13D): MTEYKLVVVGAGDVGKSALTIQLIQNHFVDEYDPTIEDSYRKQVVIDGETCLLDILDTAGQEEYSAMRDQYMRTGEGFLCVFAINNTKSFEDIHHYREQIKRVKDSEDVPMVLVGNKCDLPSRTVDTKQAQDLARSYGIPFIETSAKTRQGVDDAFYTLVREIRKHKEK
T2 sequence (P01116 1-169 isoform P01116-2 G12A): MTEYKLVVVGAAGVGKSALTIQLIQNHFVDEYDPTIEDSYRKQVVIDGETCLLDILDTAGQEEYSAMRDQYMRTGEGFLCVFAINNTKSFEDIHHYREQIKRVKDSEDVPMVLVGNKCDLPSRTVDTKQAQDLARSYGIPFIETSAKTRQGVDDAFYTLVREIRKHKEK
T7 sequence (P01116 1-169 isoform P01116-2 G12V): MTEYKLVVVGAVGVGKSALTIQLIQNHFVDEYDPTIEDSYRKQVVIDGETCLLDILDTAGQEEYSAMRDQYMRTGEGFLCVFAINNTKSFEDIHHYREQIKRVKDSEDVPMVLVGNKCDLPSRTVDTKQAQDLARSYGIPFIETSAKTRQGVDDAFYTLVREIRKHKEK
T1 sequence (P01116 1-169 isoform P01116-2): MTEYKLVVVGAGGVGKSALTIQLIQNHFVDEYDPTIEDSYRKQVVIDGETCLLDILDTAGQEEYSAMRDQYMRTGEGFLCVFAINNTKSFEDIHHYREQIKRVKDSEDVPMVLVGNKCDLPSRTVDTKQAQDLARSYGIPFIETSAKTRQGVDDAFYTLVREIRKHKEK
T6 sequence (P01116 1-169 isoform P01116-2 G12S): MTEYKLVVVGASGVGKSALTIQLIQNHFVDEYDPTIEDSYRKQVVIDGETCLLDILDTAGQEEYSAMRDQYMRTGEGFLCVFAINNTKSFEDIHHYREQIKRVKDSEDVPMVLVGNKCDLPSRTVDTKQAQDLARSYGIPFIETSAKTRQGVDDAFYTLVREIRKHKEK
T5 sequence (P01116 1-169 isoform P01116-2 G12R): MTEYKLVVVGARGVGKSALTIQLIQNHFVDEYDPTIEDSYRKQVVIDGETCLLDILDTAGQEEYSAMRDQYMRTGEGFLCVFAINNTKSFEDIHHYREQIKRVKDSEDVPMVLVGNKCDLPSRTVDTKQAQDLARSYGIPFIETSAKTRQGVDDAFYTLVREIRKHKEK

Take `CCc1cccc2cc3[nH]ncc3c(-c3ncc4c(N5C[C@@H]6C[C@H](C5)[C@H](O)C6)nc(OC[C@@]56CCCN5C[C@H](F)C6)nc4c3F)c12` [Example 767, (1R,5R,6R)-3-(7-(5-ethyl-1H-benzo[f]indazol-4-yl)-8-fluoro-2-(((2R,7aS)-2-fluorohexahydro-1H-pyrrolizin-7a-yl)methoxy)pyrido[4,3-d]pyrimidin-4-yl)-3-azabicyclo[3.2.1]octan-6-ol]: the inhibition at 0.01 µM in test [1] came out at 48%; in test [2] it was 54%; in test [3] it was 58%; in test [6], 66%; in test [8] it was 55%; in test [9], 48%. Moreover, the half-inhibitory concentration (IC50) in test [4] is 17 nM; in test [5], 3 nM; in test [7] it was 5 nM; in [10] it was 32 nM; in [11], over 10000 nM; in test [12], 193 nM. Moreover, the IC50 in test [13] turned out to be 87 nM; in test [14] it was 76 nM; in test [15], 64 nM; in test [16], 216 nM.
On to `CN(C)C(=O)c1cc2n(n1)CCCN(c1nc(OC[C@@]34CCCN3C[C@H](F)C4)nc3c(F)c(-c4c5ccccc5cc5[nH]ncc45)ncc13)C2` [Example 761, 5-(7-(1H-benzo[f]indazol-4-yl)-8-fluoro-2-(((2R,7aS)-2-fluorohexahydro-1H-pyrrolizin-7a-yl)methoxy)pyrido[4,3-d]pyrimidin-4-yl)-N,N-dimethyl-5,6,7,8-tetrahydro-4H-pyrazolo[1,5-a][1,4]diazepine-2-carboxamide], for which the 50% inhibitory concentration (IC50) in test [1] came out at 106 nM; in [2] it was 65 nM; in test [3], 41 nM; in test [4], 8 nM; in test [5], 74 nM; in [6], 33 nM. For the same molecule, the half-maximal inhibitory concentration (IC50) was 23 nM in test [7]; 177 nM in test [8]; 151 nM in test [9]; over 10000 nM in [10]; over 10000 nM in test [11]; 4320 nM in test [12]. This molecule also had a 50% inhibitory concentration (IC50) in test [13] of 1280 nM. For the same molecule, the inhibition at 0.1 µM in test [15] (NCI-H460, 3 h, single point, 100 nM compound, 3 hrs) was 11%; in test [16] (HCT-116, 3 h, single point, 100 nM compound, 3 hrs), -13%.
As for `CCc1c(F)ccc2cc(O)cc(-c3ncc4c(N5CCCC6(CC(O)C6)C5)nc(OCC5(CN(C)C)CC5)nc4c3F)c12` (stereo not shown) [Example 698, 6-(2-((1-((dimethylamino)methyl)cyclopropyl)methoxy)-7-(8-ethyl-7-fluoro-3-hydroxynaphthalen-1-yl)-8-fluoropyrido[4,3-d]pyrimidin-4-yl)-6-azaspiro[3.5]nonan-2-ol], the inhibition at 0.01 µM in test [1] worked out at 82%; in [2] it was 77%; in [3], 91%; in test [6] it was 86%; in [8], 84%; in [9], 88%. For the same molecule, the IC50 in test [4] is 2 nM; in test [5], under 2 nM; in [7], under 2 nM; in test [10] it was 17 nM; in test [11], 4150 nM; in [12], 87 nM. The IC50 was 68 nM in test [13], 141 nM in test [14], 72 nM in test [15] and 188 nM in [16].
For `CCc1c(F)ccc2cc(O)cc(-c3ncc4c(N5C[C@@H]6C[C@H](C5)[C@H](O)[C@@H]6O)nc(OC[C@@]56CCCN5C[C@H](F)C6)nc4c3F)c12` [Example 568, (1R,5S,6R,7S)-3-(7-(8-ethyl-7-fluoro-3-hydroxynaphthalen-1-yl)-8-fluoro-2-(((2R,7aS)-2-fluorohexahydro-1H-pyrrolizin-7a-yl)methoxy)pyrido[4,3-d]pyrimidin-4-yl)-3-azabicyclo[3.2.1]octane-6,7-diol], the inhibition at 0.01 µM in [1] is 97%; in test [2] it was 94%; in test [3], 96%; in test [6] it was 98%; in [8], 98%; in test [9], 98%. Moreover, the IC50 in test [4] is under 2 nM; in [5] it was under 2 nM; in test [7], under 2 nM; in test [10], 2 nM; in [11], 1380 nM; in test [12], 62 nM. Also, the IC50 in [13] amounted to 33 nM; in [14] it was 19 nM; in [15], 17 nM; in test [16], 29 nM.
Take `CCNC(=O)OC[C@@H]1CC[C@]2(COc3nc(N4CCC[C@@](C)(O)C4)c4cnc(-c5cc(O)cc6ccc(F)c(CC)c56)c(F)c4n3)CCCN12` [Example 717, ((3S,7aS)-7a-(((7-(8-ethyl-7-fluoro-3-hydroxynaphthalen-1-yl)-8-fluoro-4-((R)-3-hydroxy-3-methylpiperidin-1-yl)pyrido[4,3-d]pyrimidin-2-yl)oxy)methyl)hexahydro-1H-pyrrolizin-3-yl)methyl ethylcarbamate]: the inhibition at 0.01 µM in test [1] came out at 92%; in test [2], 90%; in [3], 93%; in test [6], 92%; in test [8], 94%; in test [9] it was 92%. Moreover, the IC50 in [4] was under 2 nM; in test [5], under 2 nM; in test [7] it was under 2 nM; in [10] it was 3 nM; in test [11] it was 1820 nM; in test [12] it was 22 nM. Moreover, the 50% inhibitory concentration (IC50) in test [13] was determined as 44 nM; in test [14] it was 47 nM; in test [15] it was 30 nM; in test [16], 84 nM.
`Oc1cc(Cl)c(C2CC2)c(-c2ncc3c(N4CCC[C@]5(C4)C[C@H](O)C5)nc(OCC45CCCN4CCC5)nc3c2F)c1` [Example 742, (2s,4r)-6-(7-(3-chloro-2-cyclopropyl-5-hydroxyphenyl)-8-fluoro-2-((tetrahydro-1H-pyrrolizin-7a(5H)-yl)methoxy)pyrido[4,3-d]pyrimidin-4-yl)-6-azaspiro[3.5]nonan-2-ol]: the half-inhibitory concentration (IC50) in [1] is 3 nM; in test [2], under 2 nM; in test [3], under 2 nM; in test [4] it was under 2 nM; in test [5], under 2 nM; in [6], 2 nM. The IC50 is under 2 nM in [7]; 3 nM in test [8]; under 2 nM in [9]; 624 nM in test [10]; over 10000 nM in [11]; 1600 nM in test [12]. The figures for the half-maximal inhibitory concentration (IC50) in test [13], in test [14] and in [16] were 292 nM, 2610 nM and 1790 nM, respectively.

The inhibition is the relative decrease from the control value, in per cent. As a reminder, the IC50 is the concentration that gives 50% inhibition. Low values mean higher potency, high ones lower potency.

The record behind these values is patent US20260015350A1, “AZAQUINAZOLINE PAN-KRAS INHIBITORS” (Mirati Therapeutics, Inc., priority 2022, published 2026).
